Assay results reported in PMC11945201, “Enhancing the Oral Bioavailability of Glutathione Using Innovative Analogue Approaches” (Pharmaceutics, 2025).

Key:
[1] = test system: glutathione S-transferase (GST); assay: Glutathione S-transferase assay (CDNB conjugation, absorbance 340 nm); format: biochemical, equine; conditions: for GST Activity > 50%: yes/no, compared to GSH, more than 50% considered retaining GST activity
Description: The degree of conjugation of GSH or novel compounds to a substrate catalysed by GST can be monitored […] by conjugation with the substrate 1-chloro-2,4-dinotrobenzene (CDNB) to a thiol group. Successful conjugation results in the formation of a S-DNB conjugate, which strongly absorbs at 340 nm.
A stock solution of GSH and novel compounds (0.0315 mmolL^−1) were prepared. GSH or novel compounds (26 µL) were added to a mixture of pH = 7.4 DPBS (170 µL), CDNB (2 µL, 100 mmolL^−1), and GST enzyme (2 µL, 25 UmL^−1) to initiate the reaction. The rate of increase in absorbance at 340 nm was monitored every minute over a 10 min period. The rate of increase in absorbance at 340 nm was calculated by the following equation (Equation (1)), where ΔA340 is the change in absorption at 340 nm per minute:(1) ΔA340=A340(final)–A340(initial)/t.
The rate of increase in absorption at 340 nm was correlated to the specific activity of GST using the following equation (Equation (2)):(2) ΔA340×V/εmM ×Venz=Specific activity of GST, where the extinction coefficient εmM for a 96-well plate of a path length of 0.5 cm is 5.3 mmolL^−1cm^−1; Venz is the volume of the GST enzyme sample used (2 µL); and V is the total volume used ([…]). […] A GST activity more than 50% was considered as retaining GST activity.

[2] = test system: glutathione reductase (GR) and glutathione peroxidase (GPx); assay: Glutathione reductase and glutathione peroxidase coupled assay (NADPH, 340 nm); format: biochemical, yeast (GR), bovine (GPx); conditions: for GT/GPx Activity > 50%: yes/no, more than 50% considered retaining GR and GPx activity
Description: The activity of GR can be measured by monitoring the rate of decrease in absorbance of its substrate, NADPH, which absorbs light of 340 nm in the presence of a second substrate, i.e., oxidised GSH. […] In the presence of peroxides, reduced GSH can be oxidised by the enzyme GPx while reducing the peroxide. […] The NADPH solution (10 μL, 5 mmolL^−1), GPx enzyme solution (10 μL, 0.25 UmL^−1), and GR enzyme solution (10 μL, 10 UmL^−1) were also added to the reaction mixture. The reaction was initiated by the addition of tBu-OOH (2 μL, 30 mmolL^−1), and the decrease in absorbance at 340 nm was recorded by a microplate reader every 10 secs for one minute. […] A GR and GPx activity more than 50% was considered as retaining GR and GPx activity.

Fibroblast cells = assay: UV rescue of UVA-irradiated fibroblast cells (MTT); format: cell-based; conditions: for % Cell Viability (with UV): UVA 1 h, then peptide 0.0325 mmolL^−1, 24 h
Description: Fibroblast cells were seeded into 96-well plates at a density of 10,000 cells per well determined by cell counting. Cells were allowed to settle and attach for 24 h before the addition of peptides. The supernatant in each well was discarded, and the attached cells were washed using serum-free DMEM twice. One group of cells was exposed to UVA under a UV lamp for 1 h. A second group of cells was not exposed to UV irradiation. The supernatant was removed from each well of both groups and replaced with peptide (100 μL, 0.0325 mmolL^−1), which was then dissolved in Fluorobite^TM DMEM. Each plate, including 2 wells of both groups was also incubated with serum-free DMEM (positive control) and 2% Triton-X (negative control) for 24 h. The supernatant in each well of both groups was then discarded and the cells washed using PBS. MTT (100 μL, 6 mmolL^−1) that was dissolved in HBSS was then added to each well and incubated for 2 h for MTT conversion into formazan. The supernatant was then discarded, and the cells were washed using PBS to remove any residual MTT and formazan that were not attached to the cellular mitochondria. Formazan was dissolved in DMSO (50 μL), and the absorbance was measured on a microplate reader at a wavelength of 570 nm.

[3] = Pharmacokinetic study after IV injection or oral gavage; format: in vivo, male Sprague Dawley rat; conditions: for AUC / bioavailability / half-life: male, plasma; for AUC / bioavailability: Sprague-Dawley; for AUC / half-life: 75 mg per rat; for AUC: AUC0-48, mean ± SD, n = 4; for bioavailability: rat, po, 75 mg; for half-life: read-out: plasma t½
Description: Pharmacokinetic studies were conducted using a male Sprague Dawley rat model. […] The animal experiments were performed in China, complying with the guide for care and use of laboratory animals. […] The collected blood samples were centrifuged at 7104× g for 5 min, and the plasma was stored at -70 °C until analysis. The plasma protein was precipitated by the addition of 1 mL of ACN, which was then vortexed for 1 min and centrifuged at 30,065× g for 15 min. […] The 1.70 concentration for each group (oral/IV) was determined using a modified LC-MS method adapted from the GSH protocol. Briefly, blood samples containing 1.70 were analysed separately by positive mode LC-MS using an Agilent 1100 series HPLC (Agilent Technology, Inc., Santa Clara, CA, USA) coupled with an Agilent 6530 Accurate Mass Q-TOF LC/MS (Agilent Technology, Inc., Santa Clara, CA, USA), which was equipped with a dual jet stream electrospray ionisation source. Chromatographic separation was achieved on a Zorbax SB C18 column (5 μm, 3 × 150 mm) maintained at 40 °C. […] The flow rate was set at 0.5 mL/min with an injection volume of 8 μL. Mass spectrometer settings were configured for m/z transitions of 319.1→215.2, with a fragmentor voltage of 180 V. The instrument parameters were as follows: a gas flow of 10 L/min, a gas temperature of 275 °C, a sheath gas flow of 12 L/min, a sheath gas temperature of 300 °C, a nebuliser pressure of 40 psi, a capillary voltage of 3000 V, and a nozzle voltage of 500 V. This method was developed and validated through triplicate linearity studies at concentrations ranging from 30 to 5000 ng/mL according to the International Conference on Harmonization (ICH) guidelines. Data were acquired and analysed using Agilent Mass Hunter Software (version A.02.17).

Compound	activity/efficacy with GST enzyme (in words) ([1]; qualitative analysis)	GST Activity > 50% [1]	activity with GPx and GR enzymes (in words) ([2]; qualitative analysis)	GT/GPx Activity > 50% [2]	cell viability versus untreated groups (in words) (Fibroblast cells; UV rescue)	% Cell Viability (with UV) (Fibroblast cells; mean ± SD, n = 6) [%]	fold increase in oral bioavailability compared to native GSH ([3]; Sprague Dawley rats) [fold]	fold increase in plasma t½ compared to native GSH ([3]; Sprague Dawley rats) [fold]	AUC ([3]; IV) [ng·h/mL]	AUC ([3]; oral) [ng·h/mL]	bioavailability [3] [%]	half-life ([3]; Sprague Dawley rats) [min]	% Cell Viability (no UV) (Fibroblast cells; peptide 0.0325 mmolL^−1, 24 h, no UV, mean ± SD, n = 6) [%]
CN(C(=O)CC[C@H](N)C(=O)O)[C@@H](CS)C(=O)NCC(=O)O [Compound 1.70]	did not	✔ (✔: yes)	retention of activity	✔ (✔: yes)	significantly higher cell viability than the untreated groups	112.4 ± 9.7	16.1	16.8	727 ± 42	82 ± 8	11.3 ± 1.2	33.6	
N[C@@H](CCC(=O)N[C@@H](CS)C(=O)NCC(=O)O)C(=O)O [GSH, Glutathione]		✔ (✔: yes)		✔ (✔: yes)		87.7 ± 4.5			5350 ± 2480	36 ± 8	0.7 ± 0.1	2	100.0 ± 8.1
